The subject of this experiment is L1210 leukemia ip in BDF1 mice, survival T/C. In words: NCI In Vivo Anticancer Drug Screen. Data for tumor model L1210 Leukemia (intraperitoneal) in B6D2F1 (BDF1) mice. The following applies: endpoint: mean survival time, higher = longer survival. Summed up:
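Ratio derived from survival: compound-dosed mice over vehicle-dosed mice, all bearing a transplantable tumor.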

Where [1] appears, read: dose: 100.0 mg/kg/injection, schedule: Q01DX001 (ip), vehicle: other.
The mark [2] stands for this setting: dose: 200.0 mg/kg/injection, schedule: Q01DX001 (ip), vehicle: other.
The mark [3] stands for this setting: dose: 400.0 mg/kg/injection, schedule: Q01DX001 (ip), vehicle: other.
Where [4] appears, read: dose: 100.0 mg/kg/injection, schedule: Q01DX001 (ip), vehicle: carboxymethylcellulose (CMC).
Setting [5] is: dose: 200.0 mg/kg/injection, schedule: Q01DX001 (ip), vehicle: carboxymethylcellulose (CMC).
The mark [6] stands for this setting: dose: 100.0 mg/kg/injection, schedule: Q01DX001 (ip), vehicle: saline.
The mark [7] stands for this setting: dose: 200.0 mg/kg/injection, schedule: Q01DX001 (ip), vehicle: saline.
The mark [8] stands for this setting: dose: 400.0 mg/kg/injection, schedule: Q01DX001 (ip), vehicle: saline.
Setting [9] is: dose: 100.0 mg/kg/injection, schedule: Q04DX002 (ip), vehicle: Klucel (hydroxypropylcellulose) (HPC).
Where [10] appears, read: dose: 200.0 mg/kg/injection, schedule: Q04DX002 (ip), vehicle: Klucel (hydroxypropylcellulose) (HPC).
Setting [11] is: dose: 400.0 mg/kg/injection, schedule: Q04DX002 (ip), vehicle: Klucel (hydroxypropylcellulose) (HPC).

“And” between values parts separate entries of the source, which are not always exact repeats. Identical values can stand only once. Toxic doses and inconclusive results are not listed.

As for `CCOC(=O)c1cc[n+](C)c2ccccc12`, the T/C (dose: 9.37 mg/kg/injection, schedule: Q01DX009 (ip), vehicle: acetone) is 101 % of control; the T/C (dose: 18.75 mg/kg/injection, schedule: Q01DX009 (ip), vehicle: acetone) was 95 % of control; the T/C (dose: 37.5 mg/kg/injection, schedule: Q01DX009 (ip), vehicle: acetone) is 98 % of control; the T/C (dose: 37.5 mg/kg/injection, schedule: Q04DX003 (ip), vehicle: acetone) was 92 % of control; the T/C (dose: 75.0 mg/kg/injection, schedule: Q04DX003 (ip), vehicle: acetone) is 89 % of control; the T/C (dose: 150.0 mg/kg/injection, schedule: Q01DX001 (ip), vehicle: acetone) is 89 % of control.

With `CCC(C)COC(=O)Nc1cccc(Cl)c1` (stereo not given), the T/C by setting is: under setting [1], 102 % of control; under setting [2], 107 % of control; under setting [3], 105 % of control.

Consider `CCOC(=O)NS(=O)(=O)[N+](CC)(CC)CC`, for which the T/C was 97 % of control under setting [4]; 97 % of control under setting [5]; 100 % of control (dose: 400.0 mg/kg/injection, schedule: Q01DX001 (ip), vehicle: carboxymethylcellulose (CMC)).

As for `CN1CC(CO)C=C2c3cccc4[nH]cc(c34)CC21` (stereo not given), the T/C is 100 % of control (dose: 25.0 mg/kg/injection, schedule: Q01DX009 (ip), vehicle: alcohol); 98 % of control (dose: 25.0 mg/kg/injection, schedule: Q04DX003 (ip), vehicle: alcohol); 118 % of control (dose: 50.0 mg/kg/injection, schedule: Q01DX009 (ip), vehicle: alcohol); 103 % of control (dose: 50.0 mg/kg/injection, schedule: Q04DX003 (ip), vehicle: alcohol); 123 % of control (dose: 100.0 mg/kg/injection, schedule: Q01DX009 (ip), vehicle: alcohol); 101 % of control (dose: 100.0 mg/kg/injection, schedule: Q04DX003 (ip), vehicle: alcohol). The T/C (dose: 200.0 mg/kg/injection, schedule: Q01DX009 (ip), vehicle: alcohol) is 107 % of control; the T/C (dose: 200.0 mg/kg/injection, schedule: Q04DX003 (ip), vehicle: alcohol) was 98 % of control; the T/C (dose: 400.0 mg/kg/injection, schedule: Q04DX003 (ip), vehicle: alcohol) was 109 % of control.

Regarding `O=C1NC(=O)C(c2ccc(F)cc2)N1` (stereo not given), the T/C is 100 % of control (dose: 50.0 mg/kg/injection, schedule: Q01DX001 (ip), vehicle: saline); 100 % of control under setting [6]; 97 % of control under setting [7]; 97 % of control under setting [8].

As to `Cc1nc(N(C)CC(=O)O)ncc1C(=O)O`, the T/C was 91 % of control under setting [9], 91 % of control under setting [10] and 94 % of control under setting [11].

For the molecule `CCCCCCCCCCCC(=O)NC(=S)Nc1ccc(N(C)C)cc1`, the T/C is 93 % of control under setting [9], 108 % of control under setting [10] and 90 % of control under setting [11].

In the case of `FCCSc1ncnc2nc[nH]c12`, the T/C is 113 % of control (dose: 20.0 mg/kg/injection, schedule: Q04DX003 (ip), vehicle: saline with Tween-80); 116 % of control (dose: 29.5 mg/kg/injection, schedule: Q04DX003 (ip), vehicle: saline with Tween-80); 159 % of control (dose: 100.0 mg/kg/injection, schedule: Q04DX003 (ip), vehicle: saline with Tween-80).

Take `CC12CC3CC(C)(C1)CC(O)(C3)C2`: the T/C reads like this: (dose: 50.0 mg/kg/injection, schedule: Q01DX001 (ip), vehicle: carboxymethylcellulose (CMC)) 101 % of control; under setting [4], 98 % of control; under setting [5], 92 % of control.

Consider `Nc1nccnc1C(=O)NOCc1ccccc1`, for which the T/C (dose: 25.0 mg/kg/injection, schedule: Q04DX002 (ip), vehicle: Klucel (hydroxypropylcellulose) (HPC)) is 90 % of control; the T/C (dose: 50.0 mg/kg/injection, schedule: Q04DX002 (ip), vehicle: Klucel (hydroxypropylcellulose) (HPC)) is 90 % of control; the T/C under setting [9] was 101 % of control and 111 % of control; the T/C under setting [10] was 105 % of control; the T/C under setting [11] is 96 % of control and 97 % of control.

On to `COC1OCC(O)C(O)C1O` (stereo not given), for which the T/C by setting is: under setting [6], 92 % of control; (dose: 100.0 mg/kg/injection, schedule: Q04DX003 (ip), vehicle: saline) 98 % of control; under setting [7], 95 % of control; (dose: 200.0 mg/kg/injection, schedule: Q04DX003 (ip), vehicle: saline) 106 % of control; under setting [8], 95 % of control; (dose: 400.0 mg/kg/injection, schedule: Q04DX003 (ip), vehicle: saline) 101 % of control.

For the molecule `CN(C1=CC(=O)C(N(C)C2CCCCC2)=CC1=O)C1CCCCC1`, the T/C is, setting by setting: (dose: 7.5 mg/kg/injection, schedule: Q01DX009 (ip), vehicle: saline) 90 % of control; (dose: 15.0 mg/kg/injection, schedule: Q01DX009 (ip), vehicle: saline) 93 % of control.

For the molecule `O=C(NC(=S)NCc1ccncc1)c1ccccc1`, the T/C by setting is: under setting [9], 100 % of control; under setting [10], 95 % of control; under setting [11], 92 % of control.

Take `CNC(=N)c1ccc(NC(=N)c2ccc(NC(=N)c3ccc(NC(=O)Nc4ccc(C#N)cc4)cc3)cc2)cc1`: the T/C is, setting by setting: (dose: 3.25 mg/kg/injection, schedule: Q01DX015 (ip), vehicle: water) 119 % of control; (dose: 13.0 mg/kg/injection, schedule: Q01DX015 (ip), vehicle: water) 160 % of control; (dose: 17.0 mg/kg/injection, schedule: Q01DX Z (ip), vehicle: water) 152 % of control; (dose: 26.0 mg/kg/injection, schedule: Q01DX015 (ip), vehicle: water) 205 % of control; (dose: 30.0 mg/kg/injection, schedule: Q01DX001 (ip), vehicle: water) 112 % of control; (dose: 32.5 mg/kg/injection, schedule: Q01DX001 (ip), vehicle: water) 180 % of control. Also, the T/C (dose: 34.0 mg/kg/injection, schedule: Q01DX Z (ip), vehicle: water) was 153 % of control; the T/C (dose: 50.0 mg/kg/injection, schedule: Q01DX001 (ip), vehicle: water) is 151 % of control; the T/C (dose: 65.0 mg/kg/injection, schedule: Q01DX001 (ip), vehicle: water) was 165 % of control and 210 % of control and 228 % of control; the T/C (dose: 97.0 mg/kg/injection, schedule: Q01DX001 (ip), vehicle: water) was 232 % of control and 267 % of control.

For the molecule `C#CCCCCCl`, the T/C is, setting by setting: under setting [1], 103 % of control; under setting [2], 104 % of control; under setting [3], 108 % of control.

In the case of `CCC1(c2ccccc2)OC1C(=O)OCCC(C)C` (stereo not given), the T/C (dose: 100.0 mg/kg/injection, schedule: Q04DX002 (ip), vehicle: saline) is 93 % of control; the T/C (dose: 200.0 mg/kg/injection, schedule: Q04DX002 (ip), vehicle: saline) is 93 % of control; the T/C (dose: 400.0 mg/kg/injection, schedule: Q04DX002 (ip), vehicle: saline) is 101 % of control.

For the molecule `CN(C)C(=O)Sc1ccc([N+](=O)[O-])cc1Cl`, the T/C by setting is: (dose: 100.0 mg/kg/injection, schedule: Q04DX003 (ip), vehicle: Klucel (hydroxypropylcellulose) (HPC)) 107 % of control; (dose: 200.0 mg/kg/injection, schedule: Q04DX003 (ip), vehicle: Klucel (hydroxypropylcellulose) (HPC)) 101 % of control; (dose: 400.0 mg/kg/injection, schedule: Q04DX003 (ip), vehicle: Klucel (hydroxypropylcellulose) (HPC)) 101 % of control.

As for `C/C=N\NC(N)=O`, the T/C is, setting by setting: (dose: 25.0 mg/kg/injection, schedule: Q04DX003 (ip), vehicle: saline) 94 % of control; (dose: 50.0 mg/kg/injection, schedule: Q04DX003 (ip), vehicle: saline) 100 % of control.

For the molecule `N#CCc1cn(-c2ccccc2)nn1`, the T/C is 101 % of control (dose: 9.38 mg/kg/injection, schedule: Q01DX001 (ip), vehicle: other); 96 % of control (dose: 18.75 mg/kg/injection, schedule: Q01DX001 (ip), vehicle: other); 97 % of control (dose: 37.5 mg/kg/injection, schedule: Q01DX001 (ip), vehicle: other).

With `CN(Cc1ccc(Cl)cc1)C(=O)Nc1ccccc1C(F)(F)F`, the T/C is 108 % of control (dose: 100.0 mg/kg/injection, schedule: Q01DX009 (ip), vehicle: saline with Tween-80); 106 % of control (dose: 200.0 mg/kg/injection, schedule: Q01DX009 (ip), vehicle: saline with Tween-80); 103 % of control (dose: 400.0 mg/kg/injection, schedule: Q01DX009 (ip), vehicle: saline with Tween-80).
